Test results reported in patent publication US7119094B1, “Substituted polycyclic aryl and heteroarpyl pyrazinones useful for selective inhibition of the coagulation cascade” (Warner-Lambert Company, priority 2000, dated 2006).
Where two headings read alike, the source gives them in different places.

Key:
[1] = biological target: T1, Trypsin (type 1× from porcine pancreas) (Sus scrofa, UniProt P00761); assay: Trypsin Assay; format: biochemical
T1 construct: Trypsin (5 ug/ml; type 1× from porcine pancreas); purchased Sigma, St. Louis Mo; host or cells: porcine pancreas
T1 sequence (P00761 9-231): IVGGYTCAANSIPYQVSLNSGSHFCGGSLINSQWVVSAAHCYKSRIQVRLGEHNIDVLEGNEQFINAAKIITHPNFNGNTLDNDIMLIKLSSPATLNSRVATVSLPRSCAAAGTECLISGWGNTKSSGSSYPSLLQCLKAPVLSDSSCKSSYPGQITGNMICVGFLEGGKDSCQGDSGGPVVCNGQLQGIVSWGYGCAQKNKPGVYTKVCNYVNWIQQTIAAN

[2] = biological target: T2, recombinant soluble tissue factor and recombinant human factor VIIa (TF-VIIa) (Homo sapiens, UniProt P08709); assay: TF-VIIa Assay; format: biochemical
T2 construct: conversion of coagulation factor VII to VIIa by Xa; purchased American Diagnostica, Greenwich Conn; host or cells: factor VIIa purchased; soluble TF made in house in E. coli
T2 sequence (P08709 213-466 limits assumed): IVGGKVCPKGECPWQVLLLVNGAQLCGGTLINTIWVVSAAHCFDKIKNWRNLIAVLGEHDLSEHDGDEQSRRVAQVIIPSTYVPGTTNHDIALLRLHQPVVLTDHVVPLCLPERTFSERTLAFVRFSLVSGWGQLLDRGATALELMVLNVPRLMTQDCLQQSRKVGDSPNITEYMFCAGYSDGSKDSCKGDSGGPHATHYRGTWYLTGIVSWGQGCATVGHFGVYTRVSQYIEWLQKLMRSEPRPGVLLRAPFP
T2 sequence (P08709 61-212 limits assumed): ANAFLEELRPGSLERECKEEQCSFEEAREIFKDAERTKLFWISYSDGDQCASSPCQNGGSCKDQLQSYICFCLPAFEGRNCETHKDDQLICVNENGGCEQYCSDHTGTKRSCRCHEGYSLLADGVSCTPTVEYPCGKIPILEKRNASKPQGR
T2 sequence (P13726 33-251 partner limits assumed): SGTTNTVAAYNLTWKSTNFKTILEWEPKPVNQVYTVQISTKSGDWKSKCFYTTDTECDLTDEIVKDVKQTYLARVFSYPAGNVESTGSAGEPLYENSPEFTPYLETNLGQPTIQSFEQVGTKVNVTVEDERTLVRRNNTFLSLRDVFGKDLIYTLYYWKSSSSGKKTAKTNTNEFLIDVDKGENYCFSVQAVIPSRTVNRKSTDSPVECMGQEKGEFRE

Human factor Xa = biological target: T3, Human factor Xa (Homo sapiens, UniProt P00742); assay: Xa Assay; format: biochemical; details: for IC50: cells without % sign; for % Inhibition Factor Xa (30 µM): at 30 µM
T3 construct: Human factor Xa (0.3 nM); purchased Enzyme Research Laboratories, South Bend Ind
T3 sequence (P00742 235-488 limits assumed): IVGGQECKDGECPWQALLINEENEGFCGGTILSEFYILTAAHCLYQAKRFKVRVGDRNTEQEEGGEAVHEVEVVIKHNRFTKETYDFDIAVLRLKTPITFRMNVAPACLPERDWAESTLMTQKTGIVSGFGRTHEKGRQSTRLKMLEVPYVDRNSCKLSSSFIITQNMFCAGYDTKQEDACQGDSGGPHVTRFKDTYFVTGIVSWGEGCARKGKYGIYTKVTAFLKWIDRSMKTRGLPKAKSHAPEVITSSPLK
T3 sequence (P00742 41-179 limits assumed): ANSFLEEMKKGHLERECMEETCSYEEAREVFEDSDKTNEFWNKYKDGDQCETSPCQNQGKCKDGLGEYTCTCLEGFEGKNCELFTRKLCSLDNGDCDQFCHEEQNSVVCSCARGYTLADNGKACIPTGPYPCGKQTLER

Human thrombin = Human thrombin (Homo sapiens, UniProt P00734)
[3] = cells without % sign, read-out: IC50 Trypsin II
[4] = cells without % sign, read-out: IC50 TF-VIIa

CCC(C)(C)Nc1nc(Cl)c(-c2cccc(N)c2)n(CC(=O)NCc2ccc(C(=N)N)cc2)c1=O [1526-06]
IC50 [1, 3]: 210 nM | IC50 [2, 4]: 170 nM | IC50 (Human factor Xa): > 30000 nM

O=C(Cn1c(-c2ccc(-c3ccccc3)cc2)c(Cl)nc(NCCc2ccc(Cl)cc2)c1=O)NCCc1cccnc1 [Example E-0119]
% Inhibition Trpysin II (100 νM) [1]: 10% | % Inhibition Thrombin II (100 νM) (Human thrombin): 0%

C[C@H](Nc1nc(Cl)c(-c2cccc(N)c2)n(CC(=O)NCc2ccc(C(=N)N)cc2)c1=O)C(=O)O [Example 135]
% Inhibition Factor Xa at 100 μM (Human factor Xa): 6% at

O=C(Cn1c(-c2ccc(-c3ccccc3)cc2)c(Cl)nc(NCCc2ccncc2)c1=O)NCCc1ccncc1 [Example E-0054]
% Inhibition Thrombin II (100 νM) (Human thrombin): 0%

CC(C(=O)NCc1ccc(C(=N)N)cc1)n1c(-c2ccccc2)c(Cl)nc(NC2CCC2)c1=O (stereo not drawn) [Example 1517-09]
IC50 [1, 3]: 1500 nM | IC50 [2, 4]: 2600 nM | % Inhibition Factor Xa (30 µM) (Human factor Xa; cells with % sign, and bare 0): 0%

CC(C(=O)NCc1ccc(C(=N)N)cc1)n1c(-c2ccccc2)c(Cl)nc(NCCc2cccc(Cl)c2)c1=O (stereo not drawn) [Example 1517-23]
IC50 [1, 3]: 1400 nM | IC50 [2, 4]: 2300 nM | % Inhibition Factor Xa (30 µM) (Human factor Xa; cells with % sign, and bare 0): 0%

N=C(N)c1ccc(CNC(=O)Cn2c(-c3cccc(N)c3)c(Cl)nc(NCCCCCC(N)=O)c2=O)cc1 [1543-11]
IC50 [1, 3]: 40 nM | IC50 [2, 4]: 70 nM | % Inhibition Factor Xa (30 µM) (Human factor Xa; cells with % sign, and bare 0): 24%

CC(C)CC(C)Nc1nc(Cl)c(-c2cccc(N)c2)n(CC(=O)NCc2ccc(C(=N)N)cc2)c1=O (stereo not drawn) [1526-17]
IC50 [1, 3]: 170 nM | IC50 [2, 4]: 80 nM | IC50 (Human factor Xa): > 30000 nM

CC(C(=O)NCc1ccc(C(=N)N)cc1)n1c(-c2ccccc2)c(Cl)nc(NCCc2ccccc2)c1=O (stereo not drawn) [Example 1517-15]
IC50 [1, 3]: 1500 nM | IC50 [2, 4]: 3100 nM | % Inhibition Factor Xa (30 µM) (Human factor Xa; cells with % sign, and bare 0): 0%

N=C(N)c1ccc(CNC(=O)Cn2c(-c3cccc(N)c3)c(Cl)nc(NC3CC4CCC3C4)c2=O)cc1 (stereo not drawn) [1526-30]
IC50 [1, 3]: 200 nM | IC50 [2, 4]: 80 nM | IC50 (Human factor Xa): > 30000 nM

CC(C(=O)NCc1ccc(C(=N)N)cc1)n1c(-c2ccccc2)c(Cl)nc(NCc2ccccc2)c1=O (stereo not drawn) [Example 1517-05]
IC50 [1, 3]: 1200 nM | IC50 [2, 4]: 4600 nM | % Inhibition Factor Xa (30 µM) (Human factor Xa; cells with % sign, and bare 0): 0%

CC(C(=O)NCc1ccc(C(=N)N)cc1)n1c(-c2ccccc2)c(Cl)nc(NCc2ccccc2)c1=O (stereo not drawn) [Example 1517-03]
IC50 [1, 3]: 2000 nM | IC50 [2, 4]: 9000 nM | % Inhibition Factor Xa (30 µM) (Human factor Xa; cells with % sign, and bare 0): 0%

COc1ccc(-c2c(Cl)nc(NCc3ccccc3)c(=O)n2CC(=O)NCCc2ccncc2)cc1 [Example E-0033]
% Inhibition Trpysin II (100 νM) ([1]; inhibitor at 100 νM): 5% | % Inhibition TF-VIIa (100 νM) ([2]; inhibitor at 100 νM): 0%

O=C(Cn1c(-c2ccc(Cl)cc2)c(Cl)nc(NCCc2cccnc2)c1=O)NCCc1ccncc1 [Example E-0021]
% Inhibition Trpysin II (100 νM) ([1]; inhibitor at 100 νM): 5% | % Inhibition TF-VIIa (100 νM) ([2]; inhibitor at 100 νM): 0%

CC(CC(=O)O)Nc1nc(Cl)c(-c2cccc(N)c2)n(CC(=O)NCc2ccc(C(=N)N)cc2)c1=O (stereo not drawn) [Example 130]
% Inhibition Factor Xa at 100 μM (Human factor Xa): 24% at

CC(C(=O)NCc1ccc(C(=N)N)cc1)n1c(-c2ccccc2)c(Cl)nc(NC2CCC2)c1=O (stereo not drawn) [Example 1517-11]
IC50 [1, 3]: 1900 nM | IC50 [2, 4]: 3000 nM | % Inhibition Factor Xa (30 µM) (Human factor Xa; cells with % sign, and bare 0): 0%

O=C(Cn1c(-c2ccccc2)c(Cl)nc(NCCc2cccnc2)c1=O)NCCc1ccncc1 [Example E-0013]
% Inhibition Trpysin II (100 νM) ([1]; inhibitor at 100 νM): 1% | % Inhibition TF-VIIa (100 νM) ([2]; inhibitor at 100 νM): 0%

O=C(Cn1c(Cc2ccccc2)c(Cl)nc(NCCc2cccnc2)c1=O)NCCc1ccncc1 [Example E-0061]
% Inhibition Trpysin II (100 νM) ([1]; inhibitor at 100 νM): 0% | % Inhibition TF-VIIa (100 νM) ([2]; inhibitor at 100 νM): 0%

CC(C(=O)NCc1ccc(C(=N)N)cc1)n1c(-c2ccccc2)c(Cl)nc(NCCc2ccccc2)c1=O (stereo not drawn) [Example 1517-17]
IC50 [1, 3]: 850 nM | IC50 [2, 4]: 1800 nM | % Inhibition Factor Xa (30 µM) (Human factor Xa; cells with % sign, and bare 0): 0%

CC(C)Nc1nc(Cl)c(-c2cc(N)cc(C(=O)NCc3ccc(Cl)cc3Cl)c2)n(CC(=O)NCc2ccc(C(=N)N)cc2)c1=O [Example 128-5]
% Inhibition Factor Xa at 100 μM (Human factor Xa): 43% at

Cc1c(Cl)nc(NCCc2ccccc2)c(=O)n1CC(=O)NCCc1ccncc1 [Example E-0002]
% Inhibition Trpysin II (100 νM) ([1]; inhibitor at 100 νM): 0% | % Inhibition TF-VIIa (100 νM) ([2]; inhibitor at 100 νM): 0%

CCN(CC)CC(C)Nc1nc(Cl)c(-c2cccc(N)c2)n(CC(=O)NCc2ccc(C(=N)N)cc2)c1=O (stereo not drawn) [1543-25]
IC50 [1, 3]: 50 nM | IC50 [2, 4]: 280 nM | % Inhibition Factor Xa (30 µM) (Human factor Xa; cells with % sign, and bare 0): 26%

O=C(Cn1c(-c2ccccc2)c(Cl)nc(NCCc2ccncc2)c1=O)NCCc1ccncc1 [Example E-0014]
% Inhibition Trpysin II (100 νM) ([1]; inhibitor at 100 νM): 0% | % Inhibition TF-VIIa (100 νM) ([2]; inhibitor at 100 νM): 0%

O=C(Cn1c(-c2cccc(Cl)c2)c(Cl)nc(NCc2ccccc2)c1=O)NCCc1cccnc1 [Example E-0074]
% Inhibition Trpysin II (100 νM) ([1]; inhibitor at 100 νM): 8% | % Inhibition TF-VIIa (100 νM) ([2]; inhibitor at 100 νM): 0%

O=C(Cn1c(-c2ccc3c(c2)OCO3)c(Cl)nc(NCCc2ccccc2)c1=O)NCCc1ccncc1 [Example E-0042]
% Inhibition Trpysin II (100 νM) ([1]; inhibitor at 100 νM): 5% | % Inhibition TF-VIIa (100 νM) ([2]; inhibitor at 100 νM): 0%

O=C(Cn1c(CCc2ccccc2)c(Cl)nc(NCCc2cccc(Cl)c2)c1=O)NCCc1ccncc1 [Example E-0067]
% Inhibition Trpysin II (100 νM) ([1]; inhibitor at 100 νM): 0% | % Inhibition TF-VIIa (100 νM) ([2]; inhibitor at 100 νM): 0%

N=C(N)c1ccc(CNC(=O)Cn2c(-c3cccc(N)c3)c(Cl)nc(NC(CC(=O)O)c3ccccc3)c2=O)cc1 (racemic) [Example 131]
IC50 ([1]; read-out: IC50 Trypsin II, cell printed 'at 100 μM', cell adds 'at 100 μM'): 48 nM | IC50 ([2]; read-out: IC50 TF-VIIa, cell printed 'at 100 μM', cell adds 'at 100 μM'): 140 nM | % Inhibition Factor Xa at 100 μM (Human factor Xa): 21% at

O=C(Cn1c(-c2ccc3c(c2)OCO3)c(Cl)nc(NCCN2CCOCC2)c1=O)NCCc1ccncc1 [Example E-0047]
% Inhibition Trpysin II (100 νM) ([1]; inhibitor at 100 νM): 2% | % Inhibition TF-VIIa (100 νM) ([2]; inhibitor at 100 νM): 0%

O=C(Cn1c(CCc2ccccc2)c(Cl)nc(NCCc2ccncc2)c1=O)NCCc1ccncc1 [Example E-0070]
% Inhibition Trpysin II (100 νM) ([1]; inhibitor at 100 νM): 0% | % Inhibition TF-VIIa (100 νM) ([2]; inhibitor at 100 νM): 0%

Nc1cccc(-c2c(Cl)nc(NC3CCC3)c(=O)n2CC(=O)N2CCC3(CC2)OCCO3)c1 [1543-41]
% Inhibition Trypsin II (30 µM) ([1]; at 30 µM, cells with % sign): 6% | % Inhibition TF-VIIa (30 µM) ([2]; at 30 µM, cells with % sign): 3% | % Inhibition Factor Xa (30 µM) (Human factor Xa; cells with % sign, and bare 0): 9%

CC(C)Nc1nc(Cl)c(-c2cc(N)cc(C(=O)NCc3ccc(Br)cc3)c2)n(CC(=O)NCc2ccc(C(=N)N)cc2)c1=O [Example 128-8]
% Inhibition Factor Xa at 100 μM (Human factor Xa): 44% at

O=C(Cn1c(CCc2ccccc2)c(Cl)nc(NCc2ccncc2)c1=O)NCCc1ccncc1 [Example E-0072]
% Inhibition Trpysin II (100 νM) ([1]; inhibitor at 100 νM): 0% | % Inhibition TF-VIIa (100 νM) ([2]; inhibitor at 100 νM): 0%

COCC(C)Nc1nc(Cl)c(-c2ccccc2)n(CC(=O)NCc2ccc(C(=N)N)cc2)c1=O (stereo not drawn) [1512-07]
IC50 ([2]; read-out: IC50 TF-VIIa): 3600 nM | % Inhibition Factor Xa (30 µM) (Human factor Xa): 4%

O=C(Cn1c(-c2cccc(Cl)c2)c(Cl)nc(NCCc2ccc(Cl)cc2)c1=O)NCCc1ccncc1 [Example E-0082]
% Inhibition Trpysin II (100 νM) ([1]; inhibitor at 100 νM): 3% | % Inhibition TF-VIIa (100 νM) ([2]; inhibitor at 100 νM): 4%

COc1ccc(-c2c(Cl)nc(NCCc3cccnc3)c(=O)n2CC(=O)NCCc2ccncc2)cc1 [Example E-0037]
% Inhibition Trpysin II (100 νM) ([1]; inhibitor at 100 νM): 2% | % Inhibition TF-VIIa (100 νM) ([2]; inhibitor at 100 νM): 0%

Cc1c(Cl)nc(NCCc2cccc(Cl)c2)c(=O)n1CC(=O)NCCc1ccncc1 [Example E-0003]
% Inhibition Trpysin II (100 νM) ([1]; inhibitor at 100 νM): 0% | % Inhibition TF-VIIa (100 νM) ([2]; inhibitor at 100 νM): 0%

O=C(Cn1c(-c2cccc(Cl)c2)c(Cl)nc(NCCc2ccccc2)c1=O)NCCc1ccncc1 [Example E-0076]
% Inhibition Trpysin II (100 νM) ([1]; inhibitor at 100 νM): 10% | % Inhibition TF-VIIa (100 νM) ([2]; inhibitor at 100 νM): 0%

COc1ccc(-c2c(Cl)nc(NCCc3ccccc3)c(=O)n2CC(=O)NCCc2ccncc2)cc1 [Example E-0034]
% Inhibition Trpysin II (100 νM) ([1]; inhibitor at 100 νM): 3% | % Inhibition TF-VIIa (100 νM) ([2]; inhibitor at 100 νM): 0%

O=C(Cn1c(-c2ccc(-c3ccccc3)cc2)c(Cl)nc(NCCc2ccccc2)c1=O)NCCc1ccncc1 [Example E-0050]
% Inhibition Trpysin II (100 νM) [1]: 0% | % Inhibition TF-VIIa (100 νM) [2]: 0%

O=C(Cn1c(-c2ccc3c(c2)OCO3)c(Cl)nc(NCc2ccncc2)c1=O)NCCc1ccncc1 [Example E-0048]
% Inhibition Trpysin II (100 νM) ([1]; inhibitor at 100 νM): 0% | % Inhibition TF-VIIa (100 νM) ([2]; inhibitor at 100 νM): 0%

O=C(Cn1c(-c2ccc(-c3ccccc3)cc2)c(Cl)nc(NCc2ccccc2)c1=O)NCCc1ccncc1 [Example E-0109]
% Inhibition Trpysin II (100 νM) [1]: 12% | % Inhibition TF-VIIa (100 νM) [2]: 2%

O=C(Cn1c(-c2cccc(Cl)c2)c(Cl)nc(NCCc2cccc(Cl)c2)c1=O)NCCc1ccncc1 [Example E-0091]
% Inhibition Trpysin II (100 νM) ([1]; inhibitor at 100 νM): 8% | % Inhibition TF-VIIa (100 νM) ([2]; inhibitor at 100 νM): 1%
